MIC, Activity and viability data for two compounds are collected here from ChEMBL document CHEMBL3045230, “Synthesis and pharmacological evaluation of novel 4-isopropylthiazole-4-phenyl-1,2,4-triazole derivatives as potential antimicrobial and antitubercular agents” (Med Chem Res, 2013).

A word on the MIC: it is the lowest concentration found to suppress growth.

In one series the test system is Bacillus subtilis. In words: Antimicrobial activity against Bacillus subtilis ATCC 60511 assessed as growth inhibition after 24 hr by broth dilution assay method. Particulars: ATCC 60511, 24 h. The series is classed as functional. (In general: Broth dilution looks for growth in wells or tubes with falling amounts of substance.)
The subject of another series is A549. Description: (§1) Cytotoxicity against Homo sapiens (human) A549 cells assessed as viable cells at 250 uM by MTT assay in presence of fetal bovine serum. The series is classed as cell-based. Particulars: a549, 250 µM. Background: Formazan colour is commonly taken as a measure of viable cells.
Another series concerns Enterococcus faecalis. Description: Antimicrobial activity against […] ATCC 14506 assessed as growth inhibition after 24 hr by broth dilution assay method. The series is classed as functional. The following applies: ATCC 14506, 24 h.
For another series, the system named is Escherichia coli. In words: Antimicrobial activity against Escherichia coli ATCC 10536 assessed as growth inhibition after 24 hr by broth dilution assay method. Particulars: ATCC 10536, 24 h. The series is classed as functional.
The subject of the next series is Staphylococcus aureus. Description: Antimicrobial activity against Staphylococcus aureus ATCC 11632 assessed as growth inhibition after 24 hr by broth dilution assay method. The following applies: ATCC 11632, 24 h. The series is classed as functional.
A further series deals with Candida tropicalis. Description: Antimicrobial activity against Candida tropicalis ATCC 1369 assessed as growth inhibition after 24 hr by broth dilution assay method. The series is classed as functional. Particulars: ATCC 1369, 24 h.
For the next series, the system named is Pseudomonas aeruginosa. In words: Antimicrobial activity against Pseudomonas aeruginosa ATCC 10145 assessed as growth inhibition after 24 hr by broth dilution assay method. The series is classed as functional. Particulars: ATCC 10145, 24 h.
The test system of series [1] is Mycobacterium tuberculosis. In words: Antitubercular activity against Mycobacterium tuberculosis H37Rv assessed as growth inhibition after 21 days by broth dilution assay method. Particulars: 504 h. The series is classed as functional.
Another series has as its system Aspergillus niger. In words: Antimicrobial activity against Aspergillus niger ATCC 6275 assessed as growth inhibition after 24 hr by broth dilution assay method. The series is classed as functional. Particulars: ATCC 6275, 24 h.
Another series relates to Klebsiella pneumoniae. In words: Antimicrobial activity against Klebsiella pneumoniae ATCC 10031 assessed as growth inhibition after 24 hr by broth dilution assay method. The following applies: ATCC 10031, 24 h. The series is classed as functional.
A further series concerns Saccharomyces cerevisiae. In words: Antimicrobial activity against Saccharomyces cerevisiae ATCC 9763 assessed as growth inhibition after 24 hr by broth dilution assay method. The series is classed as functional. Particulars: ATCC 9763, 24 h.
Series [2] can be described thus: as §1. The series is classed as cell-based. Particulars: A549 cells, read-out: Activity.

Converted amounts (≈) assume the structure as drawn.

Consider `CC(C)c1csc(-c2nnc(SCC(=O)N/N=C/c3ccc(O)cc3)n2-c2ccccc2)n1`, for which the MIC with Bacillus subtilis was found to be 125 µg/mL (≈ 261 µM); in the series on Enterococcus faecalis it was 16 µg/mL (≈ 33.4 µM); in the series on Escherichia coli it was 125 µg/mL (≈ 261 µM); in the series with Staphylococcus aureus, 125 µg/mL (≈ 261 µM); in the series with Candida tropicalis it was 62.5 µg/mL (≈ 131 µM); in the series with Pseudomonas aeruginosa, 62.5 µg/mL (≈ 131 µM). Moreover, the MIC in series [1] was 8 µg/mL (≈ 16.7 µM); in the series on Aspergillus niger it was 31.2 µg/mL (≈ 65.3 µM); in the series on Klebsiella pneumoniae it was 16 µg/mL (≈ 33.4 µM). For the same compound, the Activity result in the series with A549 was “Toxic”.

With `CC(C)c1csc(-c2nnc(SCC(=O)NN)n2-c2ccccc2)n1`, the MIC in the series on Saccharomyces cerevisiae was determined as 62.5 µg/mL (≈ 167 µM); with Bacillus subtilis, 31.2 µg/mL (≈ 83.4 µM); in the series on Enterococcus faecalis, 31.2 µg/mL (≈ 83.4 µM); with Escherichia coli, 8 µg/mL (≈ 21.4 µM); in the series with Staphylococcus aureus it was 16 µg/mL (≈ 42.7 µM); with Candida tropicalis, 31.2 µg/mL (≈ 83.4 µM). Besides, the MIC stood at 8 µg/mL (≈ 21.4 µM) in the series with Pseudomonas aeruginosa, 16 µg/mL (≈ 42.7 µM) in [1], 31.2 µg/mL (≈ 83.4 µM) with Aspergillus niger and 8 µg/mL (≈ 21.4 µM) in the series on Klebsiella pneumoniae. Also, the viability at 250 µM in series [2] was 50%.
